Results as given in patent US20250276972A1, “COMPOUNDS AS CASEIN KINASE INHIBITORS” (GRITSCIENCE BIOPHARMACEUTICALS CO.,LTD., priority 2020, published 2025).
pEC50: −log10 of the molar value.

Biological target: T1, CK1δ (Homo sapiens, UniProt P48730)
T1 construct: endogenous in cells; host or cells: Bmal1-dLuc or Per2-dLuc U2OS cells
Assay: CK1δ inhibition (EC50); Bmal1-dLuc or Per2-dLuc U2OS luminescence rhythm period assay
Assay type: cell-based
Settings: Table 3
Experimental: Bmall-dLuc or Per2-dLuc U2OS cells were suspended in the culture medium (DMEM supplemented with 10% fetal bovine serum, 0.29 mg/mL L-glutamine, 100 units/mL penicillin, and […] streptomycin) and plated onto 96-well white solid-bottom plates at 200 μL (10,000 cells) per well. After 2 days, 100 μL of the explant medium (DMEM supplemented with 2% B27, 10 mM HEPES, 0.38 mg/mL sodium bicarbonate, 0.29 mg/mL L-glutamine, 100 units/mL penicillin, […], 0.1 mg/mL gentamicin, and 1 mM luciferin, pH 7.2) was dispensed to each well, followed by the application of 1 μL of a compound of the present application (dissolved in DMSO; final concentration was 0.7% in DMSO). The plate was covered with an optically clear film and set to microplate reader (Infinite M200, Tecan).

T1 sequence (P48730 whole entry): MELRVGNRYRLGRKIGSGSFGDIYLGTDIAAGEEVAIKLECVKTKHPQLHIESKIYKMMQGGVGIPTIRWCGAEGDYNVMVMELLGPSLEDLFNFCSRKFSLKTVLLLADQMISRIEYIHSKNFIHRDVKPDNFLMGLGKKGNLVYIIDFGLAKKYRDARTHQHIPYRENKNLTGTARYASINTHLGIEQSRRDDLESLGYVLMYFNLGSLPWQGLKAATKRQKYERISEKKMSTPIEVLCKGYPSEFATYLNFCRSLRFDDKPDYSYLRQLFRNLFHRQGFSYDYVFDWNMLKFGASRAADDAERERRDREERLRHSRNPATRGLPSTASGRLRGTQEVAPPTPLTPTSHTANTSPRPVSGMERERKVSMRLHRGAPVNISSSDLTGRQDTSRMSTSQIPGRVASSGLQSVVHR

pEC50	Structure (SMILES)
6.00	CC(=O)Nc1cc(-c2c(-c3ccc(F)cc3)nn3c2CN(C)CC3)ccn1 [Compound I-71, N-(4-(2-(4-fluorophenyl)-5-methyl-4,5,6,7-tetrahydropyrazolo[1,5-a]pyrazin-3-yl)pyridin-2-yl)acetamide]
6.96	CC(=O)N1CCn2nc(-c3ccc(F)cc3)c(-c3ccnc(NC(=O)c4ccccc4)c3)c2C1 [Compound I-73, N-(4-(5-acetyl-2-(4-fluorophenyl)-4,5,6,7-tetrahydropyrazolo[1,5-a]pyrazin-3-yl)pyridin-2-yl)benzamide]
6.30	CC(=O)Nc1cc(-c2c(-c3ccc(F)cc3)nn3c2CN(C(=O)C(F)(F)F)CC3)ccn1 [Compound I-30, N-(4-(2-(4-fluorophenyl)-5-(2,2,2-trifluoroacetyl)-4,5,6,7-tetrahydropyrazolo[1,5-a]pyrazin-3-yl)pyridin-2-yl)acetamide]
5.89	CC(=O)Nc1cc(-c2c(-c3ccc(F)cc3)nn3c2CN(C2CC(F)C2)CC3)ccn1 (centres unmarked) [Compound I-49, N-(4-(5-(3-fluorocyclobutyl)-2-(4-fluorophenyl)-4,5,6,7-tetrahydropyrazolo[1,5-a]pyrazin-3-yl)pyridin-2-yl)acetamide]
6.10	CC(C)(C)C(=O)Nc1cc(-c2c(-c3ccc(F)cc3)nn3c2CN(S(C)(=O)=O)CC3)ccn1 [Compound I-32, N-(4-(2-(4-fluorophenyl)-5-(methylsulfonyl)-4,5,6,7-tetrahydropyrazolo[1,5-a]pyrazin-3-yl)pyridin-2-yl)pivalamide]
6.70	O=C(Cc1ccc(F)cc1)Nc1cc(-c2c(-c3ccc(F)cc3)nn3c2CN(Cc2ccccc2)CC3)ccn1 [Compound I-94, N-(4-(5-benzyl-2-(4-fluorophenyl)-4,5,6,7-tetrahydropyrazolo[1,5-a]pyrazin-3-yl)pyridin-2-yl)-2-(4-fluorophenyl)acetamide]
6.52	CC(=O)Nc1cc(-c2c(-c3ccc(F)cc3)nn3c2CN(CCO)CC3)ccn1 [Compound I-31, N-(4-(2-(4-fluorophenyl)-5-(2-hydroxyethyl)-4,5,6,7-tetrahydropyrazolo[1,5-a]pyrazin-3-yl)pyridin-2-yl)acetamide]
6.40	CCN1CCn2nc(-c3ccc(F)cc3)c(-c3ccnc(NC(C)=O)c3)c2C1 [Compound I-26, N-(4-(5-ethyl-2-(4-fluorophenyl)-4,5,6,7-tetrahydropyrazolo[1,5-a]pyrazin-3-yl)pyridin-2-yl)acetamide]
5.66	CC(=O)N1CCn2nc(-c3ccc(F)cc3)c(-c3ccnc(Nc4ccncc4)c3)c2C1 [Compound I-101, 1-(2-(4-fluorophenyl)-3-(2-(pyridin-4-ylamino)pyridin-4-yl)-6,7-dihydropyrazolo[1,5-a]pyrazin-5(4H)-yl)ethan-1-one]
8.00	CC(=O)N1CCn2nc(-c3ccc(F)cc3)c(-c3ccnc(NC(=O)Cc4ccccc4)c3)c2C1 [Compound I-72, N-(4-(5-acetyl-2-(4-fluorophenyl)-4,5,6,7-tetrahydropyrazolo[1,5-a]pyrazin-3-yl)pyridin-2-yl)-2-phenylacetamide]
6.00	CC(=O)N1CCn2nc(-c3ccc(F)cc3)c(-c3ccnc(NC(=O)c4ccn(C)n4)c3)c2C1 [Compound I-76, N-(4-(5-acetyl-2-(4-fluorophenyl)-4,5,6,7-tetrahydropyrazolo[1,5-a]pyrazin-3-yl)pyridin-2-yl)-1-methyl-1H-pyrazole-3-carboxamide]
